Laboratory results published in US20080145313A1, “Compositions and Methods for the Treatment and Prevention of Neoplastic Disorders” (Genesis Research & Development Corporation Limited, priority 2006, published 2008).

What was measured:
A549 xenograft tumor = assay: Xenograft tumor growth of A549 cells transfected with siRNA pre-implantation in CD-1 nude mice; type: in vivo, mouse
Description: To determine the effect of RRM1 knockdown on tumor growth, A549 cells (human lung cancer cell line; ATCC No. CCL-185) were reverse-transfected prior to implantation in CD-1 nude mice. In 175 cm^2 culture flasks, 10×10^6 A549 cells (in RPMI supplemented with 10% fetal calf serum) were added to pre-made lipoplexes. To make lipoplexes, Lipofectamine RNAiMAX in serum-free RPMI was added to an equal volume of serum-free RPMI containing siRNA (RRM1-2; SEQ ID NO: 4831 (DNA), and SEQ ID NO: 5137 (RNA)) and a control siRNA (SEQ ID NO: 4804 (DNA), and SEQ ID NO: 5301 (RNA)). After addition of cells, the final concentration of siRNA in the flask was 10 nM. Untransfected cells served as a further control. Flasks were incubated at 37° C. for 24 h to allow transfection to proceed.
The cells were harvested by trypsinization 24 h after the transfection, washed twice in PBS and viable cells were counted. Equal numbers of cells (1×10^7) were inoculated into CD-1 nude mice (n=7-9). Briefly, 5 to 7 weeks old nude mice were subcutaneously (s.c.) injected in the right flank with A549 cells in 100 μl PBS. Tumor growth was monitored 3 times per week by measuring tumor sizes using a digital caliper. Tumor volume was expressed in […] using the formula: V=a^2×b×0.52, where a and b represent the minimum and maximum tumor diameter, respectively. Mean tumor volumes calculated from each measurement were then plotted in a standard graph to compare the tumor growth of transfected cells to that of control.
To determine the effect of siRNA-mediated knockdown of HK-II, CAD, IMPDH2, RRM2, SLC16A1 and SLC29A1 on tumor growth, A549 cells (human lung cancer cell line; ATCC No. CCL-185) were reverse-transfected prior to implantation in CD-1 nude mice as described above with siRNAs given in SEQ ID NO: 5307 (DNA), and SEQ ID NO: 5304 (RNA) for RRM2, SEQ ID NO: 4932 (DNA), and SEQ ID NO: 5227 (RNA) for ENT1, SEQ ID NO: 4813 (DNA), and SEQ ID NO: 5119 (RNA) for HK-II, SEQ ID NO: 4827 (DNA), and SEQ ID NO: 5133 (RNA) for CAD, SEQ ID NO: 4879 (DNA), and SEQ ID NO: 5182 (RNA) for IMPDH2 and SEQ ID NO: 4924 (DNA), and SEQ ID NO: 5219 (RNA) for SLC16A1, respectively. The siRNA given in SEQ ID NO: 4804 (DNA), and SEQ ID NO: 5301 (RNA) was used as control.
In two separate experiments, CD-1 mice were divided into five groups that received untransfected A549 cells, cells transfected with control siRNA or three different siRNAs (as listed above), respectively. Cells were transfected in vitro using the method as described in Example 8, and 24 h after transfection, s.c. inoculated into mice. Tumor growth was measured 3 times per week. In the first experiment, mice received cells transfected with siRNA targeting RRM2, HK-II or SLC29A1 and were monitored for 33 days. In the second experiment, mice received cells transfected with siRNA targeting CAD, IMPDH2 or SLC16A1, and were monitored for 26 days. […] Similarly, preliminary data indicated tumor growth rate was reduced for the groups receiving cells transfected with siRNA targeting CAD and SLC16A1. Twenty-six days after cell inoculation, the tumor volume for mice with cells transfected with siRNA targeting CAD or SLC16A1 was 97.2±7.3 mm^3 or 110.1±28.1 mm^3, respectively.

[1] = tested on: target transcript mRNA in A549 cells; assay: Level of mRNA of target transcript in A549 cells by quantitative RT-PCR (Tables 12 and 13); type: cell-based, human; conditions: 24 h post-transfection; for mRNA knockdown of transporter gene target transcript, 10 nM: 10 nM siRNA
How it was run: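 A549 cells were transfected with siRNA at 0.1, 1.0 and 10 nM. RNA was extracted 24 h later, reverse-transcribed with random primers, and target mRNA quantified by SYBR Green qRT-PCR. Values were normalised to housekeeping genes HPRT and Lamin.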

Substance	tumor growth rate compared to control groups (A549 xenograft tumor; A549 cells transfected with siRNA before s.c. inoculation)	tumor volume (A549 xenograft tumor; twenty-six days after cell inoculation, preliminary data) [mm^3]	mRNA knockdown of transporter gene target transcript, 0.1 nM ([1]; 0.1 nM siRNA)	mRNA knockdown of transporter gene target transcript, 1 nM ([1]; 1 nM siRNA)	mRNA knockdown of transporter gene target transcript, 10 nM [1]	tumor growth inhibition compared to the control groups (A549 xenograft tumor; cells transfected pre-implantation, monitored 33 or 26 days)	average tumor size (A549 xenograft tumor; thirty-three days after the cell inoculation, preliminary data) [mm^3]	mRNA knockdown of energy and metabolism gene target transcript, 0.1 nM ([1]; 0.1 nM siRNA)	mRNA knockdown of energy and metabolism gene target transcript, 1 nM ([1]; 1 nM siRNA)
SEQ ID NO: 4924: siRNA targeting SLC16A1 (MCT1) (chain 1 TTAGACTTATCTTTCCCTGCCTTGG; chain 2 UUAGACUUAUCUUUCCCUGCCUUGG; chemistry not given here; one strand in two spellings)	reduced	110.1±28.1	+ (50-70% mRNA knockdown)	++ (70-90% mRNA knockdown)	++ (70-90% mRNA knockdown)	–	–	–	–
SEQ ID NO: 4932: siRNA targeting SLC29A1 (ENT1) (chain 1 TGATAAAGTAGCCGAAGGCACTTTC; chain 2 UGAUAAAGUAGCCGAAGGCACUUUC; chemistry not given here; one strand in two spellings)	–	–	++ (70-90% mRNA knockdown)	++ (70-90% mRNA knockdown)	++ (70-90% mRNA knockdown)	No tumor growth inhibition	–	–	–
SEQ ID NO: 5307: Stealth siRNA targeting RRM2 (chain 1 AATTCATCCCAATGAGCTTCACAGG; chain 2 AAUUCAUCCCAAUGAGCUUCACAGG; Stealth siRNA, chemical pattern not given here; one strand in two spellings)	–	–	–	–	–	–	100.1±116.6	+ (50-70% mRNA knockdown)	++ (70-90% mRNA knockdown)
